Reference: the PolyMetriX glass transition set

| SMILES | glass transition temperature [°C] |
| --- | --- |
| *CC(*)(C)C(=O)OC(COc1cc2ccccc2c2ccccc12)COc1cc2ccccc2c2ccccc12 (repeat unit) | 112.00 |
| *CC(*)OC(=O)C(C)(C)CC(C)(C)C (repeat unit) | 55.00 |
| *CCCCSS* (repeat unit) | -55.00 |
| *c1ccc(Oc2ccc(S(=O)(=O)c3ccc(Oc4ccc(-c5c6c(c(*)c7ccccc57)C(=O)N(c5ccccc5C(F)(F)F)C6=O)cc4)cc3)cc2)cc1 (repeat unit) | 290.00 |
| *CC(*)CCCCCCCCCCCCCC (repeat unit) | -24.00 |
| *c1cc(N2C(=O)c3ccc(-c4ccc5c(c4)C(=O)N(*)C5=O)cc3C2=O)c(O)cc1O (repeat unit) | 343.00 |
| */C=C/c1cc(CCCCCCCCCC)c(/C=C/c2ccc(-c3ccc(*)nc3)cn2)cc1CCCCCCCCCC (repeat unit) | 68.00 |
| *CC(CS(=O)(=O)CCCCC)O* (repeat unit) | 39.00 |
| *c1ccc2oc(-c3ccc(-c4nc5cc(C(*)(C(F)(F)F)C(F)(F)F)ccc5o4)cn3)nc2c1 (repeat unit) | 352.00 |
| *CC(c1ccccc1)C1C(=O)N(CCCN(CC)c2ccc(/N=N/c3ccc([N+](=O)[O-])cc3)c(C)c2)C(=O)C1* (repeat unit) | 137.00 |
| *CC(=O)C(*)C (repeat unit) | 23.00 |
| *Oc1ccc(Oc2ccc(P(=O)(c3ccccc3)c3ccc(Oc4ccc(Oc5cccc(*)n5)cc4)cc3)cc2)cc1 (repeat unit) | 164.00 |

Other lines, results leading:

| glass transition temperature [°C] | SMILES |
| --- | --- |
| 181.00 | *Oc1ccc(C(C)(c2ccccc2)c2ccc(OC(*)=S)cc2)cc1 (repeat unit) |
| 89.00 | *CCCCCCCCCCCCOc1ccc(/C=N/N=C/c2ccc(O*)cc2O)c(O)c1 (repeat unit) |
| 358.00 | *c1ccc(N(c2ccc(C#N)cc2)c2ccc(N3C(=O)c4ccc(-c5ccc6c(c5)C(=O)N(*)C6=O)cc4C3=O)cc2)cc1 (repeat unit) |
| -88.00 | *CC(*)CCCCCCCCCCCCCCCCCC (repeat unit) |
| 110.50 | *CC(*)(CC(=O)Oc1ccc(OCC)cc1)C(=O)Oc1ccc(OCC)cc1 (repeat unit) |
| 166.00 | *Oc1ccc(C2(c3ccc(OC(=O)CCCCC(*)=O)cc3)c3ccccc3-c3ccccc32)cc1 (repeat unit) |
| 238.00 | *c1ccc(Oc2ccc(Oc3ccc(N4C(=O)c5cccc(Oc6c(C)cc(Cc7cc(C)c(Oc8cccc9c8C(=O)N(*)C9=O)c(C)c7)cc6C)c5C4=O)c(C)c3)cc2)cc1C (repeat unit) |
| 342.00 | *c1ccc(Oc2ccc(N3C(=O)C4CCC5C(=O)N(*)C(=O)C5C4C3=O)cc2)cc1 (repeat unit) |
| 43.50 | *OC(=O)c1cccc(OCCCCCCOc2cccc(C(=O)OC3COC4C(*)COC34)c2)c1 (repeat unit) |
| 200.50 | *Oc1ccc(Oc2ccc(NC(=O)c3ccc(Oc4ccc(Oc5ccc(C(=O)Nc6ccc(*)cc6)cc5)cc4-c4ccccc4)cc3)cc2)cc1-c1ccccc1 (repeat unit) |
| -27.00 | *O[Si](C)(CCC(F)(F)F)CCC(F)(F)C(F)(F)CC[Si](*)(C)CCC(F)(F)F (repeat unit) |
| 28.00 | *Oc1ccccc1C(=O)OC(=O)c1ccccc1OC(=O)CCCCCCC(*)=O (repeat unit) |
| 360.00 | *c1ccc(Cc2ccc(N3C(=O)c4cc(-c5ccc(C(C)(C)C)cc5)c(-c5cc6c(cc5-c5ccc(C(C)(C)C)cc5)C(=O)N(*)C6=O)cc4C3=O)cc2)cc1 (repeat unit) |
| 346.00 | *c1ccc2c(c1)C(=O)N(c1cc(C)c(-c3c(C)cc(N4C(=O)c5ccc(C(*)(C(F)(F)F)C(F)(F)F)cc5C4=O)cc3C)c(C)c1)C2=O (repeat unit) |
| 199.00 | *c1ccc(C(c2ccccc2)c2ccc(N(*)c3ccc(C)cc3)cc2)cc1 (repeat unit) |
